From US20210038607A1, “OXADIAZOLYLTHIOPHENE DERIVATIVES USEFUL AS HISTONE DEACETYLASE INHIBITORS” (Karus Therapeutics Limited, priority 2018, published 2021)

How the values were obtained:
Human HDAC5 = molecular target: T1, Human HDAC5 (Homo sapiens, UniProt Q9UQL6); test: HDAC5 biochemical assay, class IIa-specific substrate; conditions: read-out: HDAC Isoform IC50 (nM) 5
T1 construct: full length with C-terminal His tag, MW=51.1 kDa; His (C); host or cells: baculovirus expression system
How it was run: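 Full-length C-terminal His-tagged HDAC5 from baculovirus (0.05 ng/ul) incubated 30 min at room temperature with 50 μM Boc-Lys(trifluoroacetyl)-AMC and compound, Tris pH 8.0 buffer with BSA, 1% DMSO. Developer then releases AMC; fluorescence 360/460 nm.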

Human HDAC9 = molecular target: T2, Human HDAC9 (Homo sapiens, UniProt Q9UKV0); test: HDAC9 biochemical assay, class IIa-specific substrate; conditions: read-out: HDAC Isoform IC50 (nM) 9
T2 construct: amino acids 604-1066 with C-terminal His tag; His (C); host or cells: baculovirus expression system
T2 sequence (Q9UKV0 604-1066 isoform Q9UKV0-5): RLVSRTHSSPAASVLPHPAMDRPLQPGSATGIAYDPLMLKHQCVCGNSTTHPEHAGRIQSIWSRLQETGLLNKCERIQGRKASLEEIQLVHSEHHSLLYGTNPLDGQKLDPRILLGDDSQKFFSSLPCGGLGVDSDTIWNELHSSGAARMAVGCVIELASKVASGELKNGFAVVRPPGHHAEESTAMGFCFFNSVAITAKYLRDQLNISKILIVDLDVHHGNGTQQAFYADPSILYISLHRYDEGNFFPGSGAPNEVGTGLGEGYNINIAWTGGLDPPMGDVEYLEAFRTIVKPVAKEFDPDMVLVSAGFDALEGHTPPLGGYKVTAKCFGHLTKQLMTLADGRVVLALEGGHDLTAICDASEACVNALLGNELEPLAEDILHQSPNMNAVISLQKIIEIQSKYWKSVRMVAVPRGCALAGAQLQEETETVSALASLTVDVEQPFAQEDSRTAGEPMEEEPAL
How it was run: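 HDAC9 residues 604-1066 (C-terminal His tag, baculovirus-expressed) at 0.06 ng/ul with 50 μM class IIa substrate Boc-Lys(trifluoroacetyl)-AMC in Tris-HCl pH 8.0 buffer with BSA and 1% DMSO. 30 min at room temperature, then developer added; fluorescence read at 360/460 nm Ex/Em.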

Human HDAC7 = molecular target: T3, Human HDAC7 (Homo sapiens, UniProt Q8WUI4); test: HDAC7 biochemical assay, class IIa-specific substrate; conditions: read-out: HDAC Isoform IC50 (nM) 7
T3 construct: (a.a. 518-end) with N-terminal GST tag; GST (N); host or cells: baculovirus expression system
T3 sequence (Q8WUI4 518-952 limits assumed): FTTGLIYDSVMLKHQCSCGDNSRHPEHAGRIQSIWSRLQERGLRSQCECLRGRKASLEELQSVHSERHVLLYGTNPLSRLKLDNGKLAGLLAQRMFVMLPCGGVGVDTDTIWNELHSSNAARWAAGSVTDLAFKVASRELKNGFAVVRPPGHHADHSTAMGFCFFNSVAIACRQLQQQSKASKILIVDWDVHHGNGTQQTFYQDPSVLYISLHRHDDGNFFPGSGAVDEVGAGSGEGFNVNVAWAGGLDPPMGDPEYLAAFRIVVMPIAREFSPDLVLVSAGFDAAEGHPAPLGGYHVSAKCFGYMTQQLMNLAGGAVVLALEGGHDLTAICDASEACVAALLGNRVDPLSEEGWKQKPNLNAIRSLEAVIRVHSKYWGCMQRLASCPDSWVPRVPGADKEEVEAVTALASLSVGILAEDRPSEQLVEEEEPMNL
How it was run: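 GST-tagged HDAC7 (a.a. 518-end, baculovirus-expressed) at 0.001 ng/ul with 50 μM Boc-Lys(trifluoroacetyl)-AMC substrate, 30 min at room temperature in pH 8.0 Tris buffer with BSA, 1% DMSO final. Developer then releases AMC; fluorescence read at 360/460 nm.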

Human HDAC1 = molecular target: T4, Human HDAC1 (Homo sapiens, UniProt Q13547); test: HDAC1 biochemical assay, AMC-labeled peptide substrate; conditions: read-out: HDAC Isoform IC50 (nM) 1
T4 construct: full length with C-terminal His-tag and C-terminal FLAG-tag; His (C); FLAG (C); host or cells: baculovirus expression system
T4 sequence (Q13547 whole entry, canonical isoform): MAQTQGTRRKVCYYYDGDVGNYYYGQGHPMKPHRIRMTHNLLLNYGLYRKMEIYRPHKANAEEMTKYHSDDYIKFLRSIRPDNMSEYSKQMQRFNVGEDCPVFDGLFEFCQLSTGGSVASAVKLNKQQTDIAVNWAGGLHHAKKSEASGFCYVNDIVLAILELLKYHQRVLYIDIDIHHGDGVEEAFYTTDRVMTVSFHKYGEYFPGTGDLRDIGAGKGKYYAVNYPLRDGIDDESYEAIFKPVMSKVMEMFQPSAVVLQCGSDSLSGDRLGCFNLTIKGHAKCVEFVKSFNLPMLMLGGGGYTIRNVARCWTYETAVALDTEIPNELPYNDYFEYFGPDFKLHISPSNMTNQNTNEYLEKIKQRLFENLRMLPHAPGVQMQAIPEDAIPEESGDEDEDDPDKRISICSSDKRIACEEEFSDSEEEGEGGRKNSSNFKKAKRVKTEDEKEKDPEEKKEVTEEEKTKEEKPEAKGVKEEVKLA
How it was run: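 Baculovirus-expressed full-length human HDAC1 with His and FLAG tags, 0.3 ng/ul, incubated 1 h at 30° C with compound and 50 μM RHKK(Ac)AMC in Tris pH 8.0 buffer with BSA and 1% DMSO. Developer then releases AMC from deacetylated substrate; fluorescence read at 360/460 nm.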

Recombinant human HDAC6 = molecular target: T5, Recombinant human HDAC6 (Homo sapiens, UniProt Q9UBN7); test: HDAC6 biochemical assay, AMC-labeled peptide substrate; conditions: HDAC6; read-out: HDAC Isoform IC50 (nM) 6
T5 construct: full length, MW=159 kDa; GST (N); host or cells: Sf9 insect cells (baculovirus)
T5 sequence (Q9UBN7 1-1215): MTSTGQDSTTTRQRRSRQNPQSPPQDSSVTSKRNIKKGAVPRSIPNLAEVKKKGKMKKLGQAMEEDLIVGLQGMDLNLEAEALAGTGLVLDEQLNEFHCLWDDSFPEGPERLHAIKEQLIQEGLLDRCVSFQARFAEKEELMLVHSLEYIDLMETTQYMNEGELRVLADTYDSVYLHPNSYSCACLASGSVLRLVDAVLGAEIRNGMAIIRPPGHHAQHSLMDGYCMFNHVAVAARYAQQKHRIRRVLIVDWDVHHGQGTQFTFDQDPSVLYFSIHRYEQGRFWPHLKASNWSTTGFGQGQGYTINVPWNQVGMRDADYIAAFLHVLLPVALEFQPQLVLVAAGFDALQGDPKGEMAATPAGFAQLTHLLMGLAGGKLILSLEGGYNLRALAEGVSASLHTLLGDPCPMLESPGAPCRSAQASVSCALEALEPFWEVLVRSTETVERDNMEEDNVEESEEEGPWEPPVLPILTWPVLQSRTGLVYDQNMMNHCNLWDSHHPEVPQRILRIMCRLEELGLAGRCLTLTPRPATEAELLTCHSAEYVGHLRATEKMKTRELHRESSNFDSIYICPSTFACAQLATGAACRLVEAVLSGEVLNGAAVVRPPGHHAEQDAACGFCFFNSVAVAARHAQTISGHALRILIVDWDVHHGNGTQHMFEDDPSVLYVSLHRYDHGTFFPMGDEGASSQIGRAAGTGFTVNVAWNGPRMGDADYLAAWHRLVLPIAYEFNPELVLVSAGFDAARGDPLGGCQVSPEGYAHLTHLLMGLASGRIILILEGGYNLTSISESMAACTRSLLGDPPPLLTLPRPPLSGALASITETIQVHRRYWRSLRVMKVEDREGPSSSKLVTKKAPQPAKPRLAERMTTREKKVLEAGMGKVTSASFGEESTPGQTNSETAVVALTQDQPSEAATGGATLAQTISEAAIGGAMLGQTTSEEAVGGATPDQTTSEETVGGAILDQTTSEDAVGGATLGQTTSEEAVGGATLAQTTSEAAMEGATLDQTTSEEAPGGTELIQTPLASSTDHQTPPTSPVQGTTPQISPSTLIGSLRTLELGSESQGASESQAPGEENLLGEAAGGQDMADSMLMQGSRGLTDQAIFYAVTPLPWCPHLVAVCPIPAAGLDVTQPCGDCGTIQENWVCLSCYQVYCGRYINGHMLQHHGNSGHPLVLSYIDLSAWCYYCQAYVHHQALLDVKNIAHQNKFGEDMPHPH
How it was run: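 Two-step fluorogenic read-out: enzyme deacetylates 50 μM RHKK(Ac)AMC for 1 h at 30° C in pH 8.0 Tris buffer with BSA and 1% DMSO, then developer cleavage gives signal at Ex 360/Em 460. Enzyme: 0.3 ng/ul recombinant full-length human HDAC6, GST-tagged, Sf9-expressed.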

Human HDAC4 = molecular target: T6, Human HDAC4 (Homo sapiens, UniProt P56524); test: HDAC4 biochemical assay, class IIa-specific substrate; conditions: read-out: HDAC Isoform IC50 (nM) 4
T6 construct: amino acids 627-1085 with N-terminal GST tag; GST (N); host or cells: baculovirus expression system
T6 sequence (P56524 627-1084 limits assumed): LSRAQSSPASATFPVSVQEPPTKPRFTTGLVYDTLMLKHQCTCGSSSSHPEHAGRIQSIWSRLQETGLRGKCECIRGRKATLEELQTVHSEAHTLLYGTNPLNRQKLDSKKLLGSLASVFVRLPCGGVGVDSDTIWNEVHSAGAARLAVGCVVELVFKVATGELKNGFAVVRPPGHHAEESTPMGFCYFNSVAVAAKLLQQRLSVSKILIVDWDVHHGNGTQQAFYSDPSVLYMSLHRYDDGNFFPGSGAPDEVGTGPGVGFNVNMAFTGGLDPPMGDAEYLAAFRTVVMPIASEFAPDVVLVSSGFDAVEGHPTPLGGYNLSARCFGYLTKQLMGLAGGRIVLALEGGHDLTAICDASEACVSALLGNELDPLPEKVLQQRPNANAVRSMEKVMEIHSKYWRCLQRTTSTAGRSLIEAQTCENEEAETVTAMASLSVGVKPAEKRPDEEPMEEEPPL
How it was run: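 GST-tagged human HDAC4 (aa 627-1085, baculovirus) at 0.004 ng/ul was incubated 30 min at room temperature with 50 μM class IIa-specific substrate BOC-Lys(trifluoroacetyl)-AMC in Tris-HCl pH 8.0 buffer with BSA, 1% DMSO. Developer then released AMC, read at 360/460 nm.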

T1 sequence (Q9UQL6 656-1122 limits assumed): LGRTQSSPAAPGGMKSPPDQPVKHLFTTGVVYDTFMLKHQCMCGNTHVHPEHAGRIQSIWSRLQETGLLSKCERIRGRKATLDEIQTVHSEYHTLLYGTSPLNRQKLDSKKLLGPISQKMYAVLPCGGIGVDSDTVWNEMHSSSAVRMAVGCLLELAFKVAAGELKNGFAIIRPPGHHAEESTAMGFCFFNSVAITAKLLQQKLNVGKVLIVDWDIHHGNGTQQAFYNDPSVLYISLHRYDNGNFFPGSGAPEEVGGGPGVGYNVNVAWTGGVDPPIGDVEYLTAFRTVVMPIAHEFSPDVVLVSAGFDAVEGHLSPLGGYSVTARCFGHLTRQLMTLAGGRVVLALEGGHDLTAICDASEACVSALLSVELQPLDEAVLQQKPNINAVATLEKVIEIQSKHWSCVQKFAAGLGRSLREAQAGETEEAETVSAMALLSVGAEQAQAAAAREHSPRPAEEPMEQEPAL

IC50 (Human HDAC5) [nM] | IC50 (Human HDAC9) [nM] | IC50 (Human HDAC7) [nM] | IC50 (Human HDAC1) [nM] | IC50 (Recombinant human HDAC6) [nM] | IC50 (Human HDAC4) [nM] | SMILES
≤ 500 | ≤ 500 | ≤ 500 | > 10000 | ≤ 1000 | ≤ 500 | FC(F)(F)c1nc(-c2ccc(CN(c3cnccn3)c3nccc4cnccc34)s2)no1 [Example AK, N-(Pyrazin-2-yl)-N-({5-[5-(trifluoromethyl)-1,2,4-oxadiazol-3-yl]thiophen-2-yl}methyl)-2,6-naphthyridin-1-amine]
≤ 10000 | ≤ 10000 | > 10000 | > 10000 | ≤ 10000 | ≤ 10000 | FC(F)(F)c1ccc(N(Cc2ccc(-c3noc(C(F)(F)F)n3)s2)c2cnccn2)nc1 [Example AB, N-({5-[5-(Trifluoromethyl)-1,2,4-oxadiazol-3-yl]thiophen-2-yl}methyl)-N-[5-(trifluoromethyl)pyridin-2-yl]pyrazin-2-amine]
≤ 10000 | > 10000 | ≤ 10000 | > 10000 | ≤ 1000 | ≤ 10000 | Cc1cncc(N(Cc2ccc(-c3noc(C(F)(F)F)n3)s2)c2cc(C(F)(F)F)cnn2)n1 [Example EM, N-(6-Methylpyrazin-2-yl)-5-(trifluoromethyl)-N-({5-[5-(trifluoromethyl)-1,2,4-oxadiazol-3-yl]thiophen-2-yl}methyl)pyridazin-3-amine]
≤ 500 | ≤ 1000 | ≤ 500 | > 10000 | ≤ 500 | ≤ 500 | FC(F)(F)c1nc(-c2ccc(CN(c3ccncc3)c3cnccn3)s2)no1 [Example AR, N-(Pyridin-4-yl)-N-({5-[5-(trifluoromethyl)-1,2,4-oxadiazol-3-yl]thiophen-2-yl}methyl)pyrazin-2-amine]
≤ 10000 | ≤ 10000 | ≤ 10000 | > 10000 | ≤ 10000 | ≤ 10000 | COc1ccnc(N(Cc2ccc(-c3noc(C(F)(F)F)n3)s2)c2cnccn2)n1 [Example AU, 4-Methoxy-N-(pyrazin-2-yl)-N-({5-[5-(trifluoromethyl)-1,2,4-oxadiazol-3-yl]thiophen-2-yl}methyl)pyrimidin-2-amine]
≤ 1000 | ≤ 10000 | ≤ 10000 | > 10000 | ≤ 1000 | ≤ 10000 | FC(F)(F)c1nc(-c2ccc(CN(c3cnccn3)c3cc4nccnc4cn3)s2)no1 [Example AF, N-{Pyrido[3,4-b]pyrazin-7-yl}-N-({5-[5-(trifluoromethyl)-1,2,4-oxadiazol-3-yl]thiophen-2-yl}methyl)pyrazin-2-amine]
≤ 500 | ≤ 1000 | ≤ 500 | > 10000 | ≤ 10000 | ≤ 500 | Cc1ncnc(C)c1N(Cc1ccc(-c2noc(C(F)(F)F)n2)s1)c1cnccn1 [Example DC, 4,6-Dimethyl-N-(pyrazin-2-yl)-N-({5-[5-(trifluoromethyl)-1,2,4-oxadiazol-3-yl]thiophen-2-yl}methyl)pyrimidin-5-amine]
≤ 10000 | ≤ 10000 | ≤ 10000 | > 10000 | ≤ 10000 | ≤ 10000 | Cc1ccc(N(Cc2ccc(-c3noc(C(F)(F)F)n3)s2)c2cnccn2)nn1 [Example DF, 6-Methyl-N-(pyrazin-2-yl)-N-({5-[5-(trifluoromethyl)-1,2,4-oxadiazol-3-yl]thiophen-2-yl}methyl)pyridazin-3-amine]
≤ 10000 | ≤ 10000 | ≤ 10000 | > 10000 | ≤ 10000 | ≤ 1000 | FC(F)(F)c1nc(-c2ccc(CN(c3cnccn3)c3cccnn3)s2)no1 [Example DD, N-(Pyrazin-2-yl)-N-({5-[5-(trifluoromethyl)-1,2,4-oxadiazol-3-yl]thiophen-2-yl}methyl)pyridazin-3-amine]
≤ 10000 | ≤ 10000 | ≤ 10000 | > 10000 | ≤ 10000 | ≤ 10000 | Cc1ncc(N(Cc2ccc(-c3noc(C(F)(F)F)n3)s2)c2cnccn2)nc1C [Example BT, 5,6-Dimethyl-N-(pyrazin-2-yl)-N-({5-[5-(trifluoromethyl)-1,2,4-oxadiazol-3-yl]thiophen-2-yl}methyl)pyrazin-2-amine]
≤ 10000 | ≤ 10000 | ≤ 10000 | > 10000 | ≤ 10000 | ≤ 10000 | FC(F)(F)c1nc(-c2ccc(CN(c3cnccn3)c3nccc(N4CCCC4)n3)s2)no1 [Example AV, N-(Pyrazin-2-yl)-4-(pyrrolidin-1-yl)-N-({5-[5-(trifluoromethyl)-1,2,4-oxadiazol-3-yl]thiophen-2-yl}methyl)pyrimidin-2-amine]
≤ 500 | ≤ 1000 | ≤ 500 | > 10000 | ≤ 10000 | ≤ 500 | Cc1ncncc1N(Cc1ccc(-c2noc(C(F)(F)F)n2)s1)c1cnccn1 [Example CX, 4-Methyl-N-(pyrazin-2-yl)-N-({5-[5-(trifluoromethyl)-1,2,4-oxadiazol-3-yl]thiophen-2-yl}methyl)pyrimidin-5-amine]
